Values of other authors in US20060172014A1, “Treatment of lung cancer with active vitamin D compounds in combination with other treatments” (Novacea, Inc., priority 2003, published 2006).

What was measured:
[1] = test system: patients with refractory malignancies; settings: weekly HDPA of calcitriol; Beer et al.

C=C1/C(=C\C=C2/CCC[C@]3(C)[C@@H]([C@H](C)CCCC(C)(C)O)CC[C@@H]23)C[C@@H](O)C[C@@H]1O [calcitriol, 1α,25-dihydroxyvitamin D3]
Dose-limiting toxicity [1]: no dose-limiting toxicity
Mean peak calcitriol levels [1]: within the therapeutic range
Growth of lung cancer cell line (lung cancer cell line; cell line containing high levels of vitamin D receptor): inhibit the growth
Growth of lung cancer cell lines (lung cancer cell line; cell lines having insignificant levels of the receptor): not
